Values joined by “and” are separate entries in the source; they are usually repeats but may differ in a detail not shown here. Equal values may be shown once.
Columns and labels:
muscle cells = assay: Total glucose uptake in vitro with fluorescent glucose analog; format: cell-based; conditions: for AVERAGE (N = 3) fluorescence of fluorescent glucose in the cells / FOLD CHANGE IN TOTAL GLUCOSE UPTAKE (OVER CONTROL): 30 minutes at 37 C
Method: Total glucose uptake was measured using fluorescent glucose analog from Molecular Probes. Briefly, muscle cells were treated with kinetin, N^2-Acetyl-Guanosine and N^2-Acetyl-Guanine for 30 minutes at 37 C first and subsequently, these cells were exposed to 500 μM of fluorescent glucose analog for 5 minutes at room temperature. Next, cells were washed twice with cold Krebs-Hepes buffered solution and fixed in 70% ethanol in water. Fluorescence of fluorescent glucose in the cells was measured using fluorescent plate reader at 480/530 nm (excitation/emission). […] Table 4 refers to multiple independent experiments where multiple identical concentrations for the same reagents are indicated.

activated AMPK = assay: Western immunoblot for activated (phospho-Thr172) AMPK in muscle cells; format: cell-based, mouse; conditions: for FOLD AMPK ACTIVATION (OVER CONTROL): cells treated 30 minutes at 37° C
Method: (§1) The levels of Glut-4, activated AMPK and activated Akt were measured in mouse muscle cells C2C12 (from ATTC) and in primary culture of human skeletal muscle cells (Clonetics, Inc.) using Western immunoblotting. C2C12 cells were plated at 1.5×1-exp5 cells per mL/well (12-well plate) in standard cell culture medium (DMEM supplemented with 10% fetal bovine serum (FBS), 25 mM glucose, 20 mM Hepes, 4 mM glutamine and 2 mM sodium pyruvate. 48 hrs after the plating, medium was changed to differentiation medium (DMEM supplemented with 5 mM of glucose and 0.5% of FBS) for next 3-4 days to stimulate the formation of myotubes. Three hours before the treatment with selected agents, cells were washed with PBS and transferred to PBS supplemented with 5 mM of glucose.
(§2) Human skeletal muscle cells (HSKM) were cultured in SKBM-2 mediums provided by Clonetics. 48 hrs after cell plating, medium was changed to SKBM medium to stimulate differentiation of the cells to myotubes. When differentiated, the myotubes were transferred to PBS supplemented with 5 mM glucose for three hrs before the treatment.
(§3) Analysis of C2C12 cells for the level of activated AMPK, Akt and the level of GLUT-4 was performed in the same experimental system. The cells were treated for 30 minutes at 37° C. […] Subsequently, 20 μg per sample of sample protein was used for Western analysis using NuPage 10% Bis/Tris gels (Invitrogen). After exposure of membranes to primary and secondary antibodies AMPK, AKT or Glut-4 was detected using ECL-Plus (Amersham) following producer's instruction. Chemilumiscent signals were detected by using ChemiDoc system from Biorad. Intensity of detected signals were analyzed and measured using Quantity One software (Biorad). Alternatively, the level of phosphorylated AMPK was detected using ECL kit from Amersham and short exposure to Kodak films.
(§4) Experimental setup: Cell Culture was followed by treatment with selected contemplated compounds, which was followed by cell lysis and western blot analysis for AMPK, Akt, GLUT4, total AMPK, and total Akt. Signals were acquired accordingly.

[1] = test system: rat epitrochlearis muscle; assay: Glucose uptake in rat epitrochlearis muscle; format: cell-based; design: unit not given here; conditions: 60 minute incubation at 37 C, 10 minute transport at 30 C; for Glucose uptake, Raw: single values, listed as K
Method: Glucose uptake in rat epitrochlearis muscle was determined following a protocol substantially as described by Brozinick, J. T., and Birnbaum, M. J. (1998) J. Biol. Chem. 273(24), […]. Results are listed in Tables 5 and 6, wherein data of Table 5 were obtained for 60 minute incubations (at 37 C), 10 minute transport at (30 C) and data of Table 6 were obtained for 60 minute incubations (at 37 C), 10 minute transport at (30 C) of the compounds as indicated (K is kinetin, AG is N2-acetylguanine).

GLUT-4 = assay: Western immunoblot for GLUT-4 protein level in C2C12 cells; format: cell-based, mouse
Method: as §1
Analysis of C2C12 cells for the level of activated AMPK, Akt and the level of GLUT-4 was performed in the same experimental system. The cells were treated for 30 minutes at 37° C. After the treatment, the cells were washed with ice-cold PBS and lysed with 80 μl of lysis buffer/well (M-PER buffer from Pierce supplemented with protease and phosphatase inhibitor mix (Calbiochem) for 10 minutes on ice. Next, the plates were transferred to −20° C. to improve the lysis of the cells. Next cells were sonicated for 5 minutes and lysate was transferred to Eppendorf tubes and centrifuged at 14,000 rpm for 10 minutes. Supernatants were collected in fresh Eppendorf tubes and kept on ice to measure the amount of total proteins. 3 μl of each lysate was used to measure the protein concentration using standard Bradford method (Biorad). Subsequently, 20 μg per sample of sample protein was used for Western analysis using NuPage 10% Bis/Tris gels (Invitrogen). After exposure of membranes to primary and secondary antibodies AMPK, AKT or Glut-4 was detected using ECL-Plus (Amersham) following producer's instruction. Chemilumiscent signals were detected by using ChemiDoc system from Biorad. Intensity of detected signals were analyzed and measured using Quantity One software (Biorad). Alternatively, the level of phosphorylated AMPK was detected using ECL kit from Amersham and short exposure to Kodak films.
Experimental setup: Cell Culture was followed by treatment with selected contemplated compounds, which was followed by cell lysis and western blot analysis for AMPK, Akt, GLUT4, total AMPK, and total Akt. Signals were acquired accordingly. Primary antibodies used in these studies are the following: Anti-phospho-AMPK (Thr172), mouse, rabbit IgG, from Cell Signaling, #2531; Anti-phospho-Akt (Ser473), mouse, rabbit IgG, Cell Signaling, #9271; Anti-Glut-4, mouse, rabbit IgG, Calbiochem, #400064; Anti-AMPK (total), mouse, rabbit IgG, Cell Signaling, #2532; Anti-Akt (total), mouse, rabbit IgG, Cell Signaling, #9272.
The effects of kinetin, N^2-Acetyl-Guanosine and N^2-Acetyl-Guanine on GLUT-4 protein level in C2C12 cells were investigated following the same experimental design as described for AMPK and AKT. Anti-Glut-4 antibody used in this study was from Calbiochem. […] Table 3 refers to multiple independent experiments where multiple identical concentrations for the same reagents are indicated.

activated Akt = assay: Western immunoblot for activated (phospho-Ser473) Akt in muscle cells; format: cell-based, mouse; conditions: for FOLD AKT ACTIVATION (OVER CONTROL): cells treated 30 minutes at 37° C
Method: as §1, §2, §3, §4

[2] = concentration 0.15 (unit not given)
[3] = concentration 0.3 (unit not given)
[4] = concentration 0.75 (unit not given)
[5] = concentration 1.5 (unit not given)
[6] = concentration 3.75 (unit not given)
[7] = concentration 7.5 (unit not given)

c1coc(CNc2ncnc3[nH]cnc23)c1 [Kinetin, kinetin]
effect on glucose uptake in muscle cells in vitro (in words) (muscle cells): potently enhance glucose uptake in muscle cells in vitro | AVERAGE (N = 3) fluorescence of fluorescent glucose in the cells (muscle cells; [2]): 88.6 +/− 0.9 | FOLD CHANGE IN TOTAL GLUCOSE UPTAKE (OVER CONTROL) (muscle cells; [2]): 1.88 fold | AVERAGE (N = 3) fluorescence of fluorescent glucose in the cells (muscle cells; [3]): 86.0 +/− 0.7 | FOLD CHANGE IN TOTAL GLUCOSE UPTAKE (OVER CONTROL) (muscle cells; [3]): 2.97 fold | AVERAGE (N = 3) fluorescence of fluorescent glucose in the cells (muscle cells; [4]): 103.3 +/− 2.1 | FOLD CHANGE IN TOTAL GLUCOSE UPTAKE (OVER CONTROL) (muscle cells; [4]): 2.19 fold | AVERAGE (N = 3) fluorescence of fluorescent glucose in the cells (muscle cells; [5]): 110.6 +/− 2.3 | FOLD CHANGE IN TOTAL GLUCOSE UPTAKE (OVER CONTROL) (muscle cells; [5]): 3.82 fold | AVERAGE (N = 3) fluorescence of fluorescent glucose in the cells (muscle cells; [6]): 102.6 +/− 4.7 | FOLD CHANGE IN TOTAL GLUCOSE UPTAKE (OVER CONTROL) (muscle cells; [6]): 2.18 fold | AVERAGE (N = 3) fluorescence of fluorescent glucose in the cells (muscle cells; [7]): 56.6 +/− 1.4 | FOLD CHANGE IN TOTAL GLUCOSE UPTAKE (OVER CONTROL) (muscle cells; [7]): 1.95 fold | FOLD AMPK ACTIVATION (OVER CONTROL) (activated AMPK; 0.1 microM): 5.30 fold | FOLD AMPK ACTIVATION (OVER CONTROL) (activated AMPK; 0.3 microM): 8.12 fold | FOLD AMPK ACTIVATION (OVER CONTROL) (activated AMPK; 0.8 microM): 3.60 fold and 2.40 fold | FOLD AMPK ACTIVATION (OVER CONTROL) (activated AMPK; 1.0 microM): 19.50 fold | FOLD AMPK ACTIVATION (OVER CONTROL) (activated AMPK; 2.0 microM): 2.70 fold | FOLD AMPK ACTIVATION (OVER CONTROL) (activated AMPK; 3.0 microM): 14.50 fold | FOLD AMPK ACTIVATION (OVER CONTROL) (activated AMPK; 10.0 microM): 12.80 fold | Glucose uptake, Mean ([1]; 0.5 uM): 0.99 | Glucose uptake, Mean ([1]; 1 uM (Table 6)): 1.23 | Glucose uptake, Raw ([1]; 1 uM (Table 6)): 1.54 and 0.95 and 1.33 and 1.10 and 1.23 | Glucose uptake, Mean ([1]; 2 uM): 0.70 | Glucose uptake, Raw ([1]; 2 uM): 0.57 and 0.90 and 0.64 and 0.81 | effect on GLUT-4 protein level (in words) (GLUT-4): potently increase GLUT-4 protein level | FOLD CHANGE IN GLUT-4 LEVEL (OVER CONTROL) (GLUT-4; 0.3 microM): 3.45 fold and 3.95 fold | FOLD CHANGE IN GLUT-4 LEVEL (OVER CONTROL) (GLUT-4; 0.8 microM): 3.46 fold and 2.36 fold | FOLD CHANGE IN GLUT-4 LEVEL (OVER CONTROL) (GLUT-4; 0.9 microM): 4.00 fold | FOLD CHANGE IN GLUT-4 LEVEL (OVER CONTROL) (GLUT-4; 2.0 microM): 1.88 fold | FOLD CHANGE IN GLUT-4 LEVEL (OVER CONTROL) (GLUT-4; 2.7 microM): 3.88 fold | FOLD CHANGE IN GLUT-4 LEVEL (OVER CONTROL) (GLUT-4; 8.1 microM): 1.11 fold | FOLD AKT ACTIVATION (OVER CONTROL) (activated Akt; 0.3 microM): 5.08 fold | FOLD AKT ACTIVATION (OVER CONTROL) (activated Akt; 0.8 microM): 3.17 fold | FOLD AKT ACTIVATION (OVER CONTROL) (activated Akt; 0.9 microM): 3.81 fold | FOLD AKT ACTIVATION (OVER CONTROL) (activated Akt; 2.0 microM): 3.35 fold | FOLD AKT ACTIVATION (OVER CONTROL) (activated Akt; 2.7 microM): 3.21 fold | FOLD AKT ACTIVATION (OVER CONTROL) (activated Akt; 5.0 microM): 2.07 fold | FOLD AKT ACTIVATION (OVER CONTROL) (activated Akt; 8.1 microM): 0.24 fold

CC(=O)Nc1nc2nc[nH]c2c(=O)[nH]1 [N^2-Acetyl-Guanine, N2-acetylguanine]
effect on glucose uptake in muscle cells in vitro (in words) (muscle cells): potently enhance glucose uptake in muscle cells in vitro | AVERAGE (N = 3) fluorescence of fluorescent glucose in the cells (muscle cells; [2]): 86.4 +/− 2.3 | FOLD CHANGE IN TOTAL GLUCOSE UPTAKE (OVER CONTROL) (muscle cells; [2]): 1.85 fold | AVERAGE (N = 3) fluorescence of fluorescent glucose in the cells (muscle cells; [3]): 54.5 +/− 1.7 | FOLD CHANGE IN TOTAL GLUCOSE UPTAKE (OVER CONTROL) (muscle cells; [3]): 2.68 fold | AVERAGE (N = 3) fluorescence of fluorescent glucose in the cells (muscle cells; [5]): 55.2 +/− 0.8 | FOLD CHANGE IN TOTAL GLUCOSE UPTAKE (OVER CONTROL) (muscle cells; [5]): 2.71 fold | AVERAGE (N = 3) fluorescence of fluorescent glucose in the cells (muscle cells; [6]): 115.9 +/− 3.7 | FOLD CHANGE IN TOTAL GLUCOSE UPTAKE (OVER CONTROL) (muscle cells; [6]): 2.48 fold | AVERAGE (N = 3) fluorescence of fluorescent glucose in the cells (muscle cells; [7]): 59.6 +/− 0.4 | FOLD CHANGE IN TOTAL GLUCOSE UPTAKE (OVER CONTROL) (muscle cells; [7]): 2.93 fold | FOLD AMPK ACTIVATION (OVER CONTROL) (activated AMPK; 0.3 microM): 5.42 fold | FOLD AMPK ACTIVATION (OVER CONTROL) (activated AMPK; 1.5 microM): 5.85 fold | FOLD AMPK ACTIVATION (OVER CONTROL) (activated AMPK; 7.5 microM): 6.00 fold | FOLD AMPK ACTIVATION (OVER CONTROL) (activated AMPK; 37.5 microM): 6.51 fold | effect on AMPK activity (in words) (activated AMPK; no concentration stated): potent activators of AMPK | Glucose uptake, Mean ([1]; 0.1 uM): 1.12 | Glucose uptake, Mean ([1]; 0.4 uM): 1.43 | effect on GLUT-4 protein level (in words) (GLUT-4): potently increase GLUT-4 protein level | FOLD CHANGE IN GLUT-4 LEVEL (OVER CONTROL) (GLUT-4; 0.3 microM): 3.94 fold | FOLD CHANGE IN GLUT-4 LEVEL (OVER CONTROL) (GLUT-4; 1.5 microM): 3.84 fold | FOLD CHANGE IN GLUT-4 LEVEL (OVER CONTROL) (GLUT-4; 7.5 microM): 3.24 fold | FOLD CHANGE IN GLUT-4 LEVEL (OVER CONTROL) (GLUT-4; 37.5 microM): 2.80 fold | FOLD AKT ACTIVATION (OVER CONTROL) (activated Akt; 0.3 microM): 3.50 fold and 2.44 fold | FOLD AKT ACTIVATION (OVER CONTROL) (activated Akt; 7.5 microM): 2.58 fold and 1.95 fold | effect on Akt activity (in words) (activated Akt; no concentration stated): potent activators of AMPK as well as Akt

Source: patent publication US20090208620A1, “Alimentary Compositions and Methods For Metabolic Modulation” (VDF FUTURECEUTICALS, INC., priority 2003, published 2009)
